Measured values from patent US7935687B2, “Methods for treating spinal muscular atrophy using tetracycline compounds” (Paratek Pharmaceuticals, Inc., priority 2007, dated 2011).

Experiments:
[1] = tested on: S. aureus (SA RN450); assay: Antibacterial MIC, gram positive; format: cell-based; settings: CLSI methodology, 35° C., 18-24 hours
[2] = tested on: SMN2 mRNA; assay: In vitro cell-free splicing assay for inclusion of exon 7; format: biochemical; settings: HeLa cell nuclear extract, 30° C., 3 hours
Outline: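 ^32P-labelled SMN2 minigene pre-mRNA (exon 6 to part of exon 8; 10 fmol) spliced 3 h at 30 °C in 30% HeLa nuclear extract with 0.5 mM ATP, 1.56 mM MgCl2, pH 7.4, plus compound or buffer. Exon 7 inclusion quantified by denaturing PAGE and phosphorimaging. Emax is maximal % inclusion and Cmax the lowest concentration (μM) reaching it, reported as binned grades.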

[3] = tested on: E. coli (EC D1-209); assay: Antibacterial MIC, gram negative; format: cell-based; settings: CLSI methodology, 35° C., 18-24 hours

Compound | MIC Gram Positive (SA RN450) [1] | Cmax (lowest compound concentration at which the maximum exon 7 inclusion occurs) [2] | Emax (maximum percentage exon 7 inclusion observed) [2] | MIC Gram Negative (EC D1-209) [3] | MIC ([1]; Staphylococcus aureus) [µg/mL] | MIC ([3]; Escherichia coli) [µg/mL]
CC(C)N1CCN(CC(=O)c2ccc(O)c3c2CC2CC4C(N(C)C)C(O)=C(C(N)=O)C(=O)C4(O)C(O)=C2C3=O)CC1 (stereo not drawn) [BX] | *** (Good antibacterial activity (e.g., less than about 4 μg/mL)) | * (concentrations of greater than 40 μM) | * (percentage inclusion values of less than 10%) | * (weak antibacterial activity (greater than about 8 μg/mL)) | – | –
CN(C)CCCC(=O)Nc1cccc(-c2ccc(O)c3c2CC2CC4C(N(C)C)C(O)=C(C(N)=O)C(=O)C4(O)C(O)=C2C3=O)c1 (stereo not drawn) [Compound Q] | *** (Good antibacterial activity (e.g., less than about 4 μg/mL)) | *** (concentrations of less than 10 μM) | ** (values of 10-20%) | * (weak antibacterial activity (greater than about 8 μg/mL)) | – | –
CN(C)CCCNC(=O)c1cccc(-c2ccc(O)c3c2CC2CC4C(N(C)C)C(O)=C(C(N)=O)C(=O)C4(O)C(O)=C2C3=O)c1 (stereo not drawn) [J] | *** (Good antibacterial activity (e.g., less than about 4 μg/mL)) | *** (concentrations of less than 10 μM) | ** (values of 10-20%) | * (weak antibacterial activity (greater than about 8 μg/mL)) | – | –
CN(C)C1C(O)=C(C(N)=O)C(=O)C2(O)C(O)=C3C(=O)c4c(O)ccc(C(=O)CNCc5cccn5C)c4CC3CC12 (stereo not drawn) [CE] | *** (Good antibacterial activity (e.g., less than about 4 μg/mL)) | *** (concentrations of less than 10 μM) | ** (values of 10-20%) | * (weak antibacterial activity (greater than about 8 μg/mL)) | – | –
CC(=O)N1CCN(CC(=O)c2ccc(O)c3c2CC2CC4C(N(C)C)C(O)=C(C(N)=O)C(=O)C4(O)C(O)=C2C3=O)CC1 (stereo not drawn) [BS] | *** (Good antibacterial activity (e.g., less than about 4 μg/mL)) | * (concentrations of greater than 40 μM) | ** (values of 10-20%) | * (weak antibacterial activity (greater than about 8 μg/mL)) | – | –
CN(C)C1C(O)=C(C(N)=O)C(=O)C2(O)C(O)=C3C(=O)c4c(O)ccc(-c5cccc(C(=O)NCCN)c5)c4CC3CC12 (stereo not drawn) [N] | *** (Good antibacterial activity (e.g., less than about 4 μg/mL)) | ** (concentrations between 40 and 10 μM) | ** (values of 10-20%) | * (weak antibacterial activity (greater than about 8 μg/mL)) | – | –
CC(C)N(CCNC(=O)c1cccc(-c2ccc(O)c3c2CC2CC4C(N(C)C)C(O)=C(C(N)=O)C(=O)C4(O)C(O)=C2C3=O)c1)C(C)C (stereo not drawn) [T] | *** (Good antibacterial activity (e.g., less than about 4 μg/mL)) | ** (concentrations between 40 and 10 μM) | ** (values of 10-20%) | * (weak antibacterial activity (greater than about 8 μg/mL)) | – | –
COCCNCc1ccoc1-c1ccc(O)c2c1CC1CC3C(N(C)C)C(O)=C(C(N)=O)C(=O)C3(O)C(O)=C1C2=O (stereo not drawn) [BQ] | *** (Good antibacterial activity (e.g., less than about 4 μg/mL)) | *** (concentrations of less than 10 μM) | ** (values of 10-20%) | * (weak antibacterial activity (greater than about 8 μg/mL)) | – | –
CN(C)CCCNC(=O)c1cccc(-c2ccc(O)c3c2CC2CC4C(N(C)C)C(O)=C(C(N)=O)C(=O)C4(O)C(O)=C2C3=O)c1 (stereo not drawn) [P] | ** (modest antibacterial activity (between about 4 and 8 μg/mL)) | ** (concentrations between 40 and 10 μM) | ** (values of 10-20%) | * (weak antibacterial activity (greater than about 8 μg/mL)) | – | –
CN(C)C1C(O)=C(C(N)=O)C(=O)C2(O)C(O)=C3C(=O)c4c(O)ccc(C(=O)CNCc5ccco5)c4CC3CC12 (stereo not drawn) [CC] | ** (modest antibacterial activity (between about 4 and 8 μg/mL)) | *** (concentrations of less than 10 μM) | ** (values of 10-20%) | * (weak antibacterial activity (greater than about 8 μg/mL)) | – | –
CCOC(=O)CCNC(=O)c1cccc(-c2ccc(O)c3c2C[C@H]2C[C@H]4[C@H](N(C)C)C(O)=C(C(N)=O)C(=O)[C@@]4(O)C(O)=C2C3=O)c1 [Compound I, 3-[3-((6aS,10S,10aS,11aR)-8-Carbamoyl-10-dimethylamino-4,6,6a,9-tetrahydroxy-5,7-dioxo-5,6a,7,10,10a,11,11a,12-octahydro-naphthacen-1-yl)-benzoylamino]-propionic Acid Ethyl Ester] | – | * (concentrations of greater than 40 μM) | *** (values greater than 20%) | – | < 4 | > 8
CN(CCC#N)Cc1cccc(-c2ccc(O)c3c2CC2CC4C(N(C)C)C(O)=C(C(N)=O)C(=O)C4(O)C(O)=C2C3=O)c1 (stereo not drawn) [BL] | *** (Good antibacterial activity (e.g., less than about 4 μg/mL)) | * (concentrations of greater than 40 μM) | ** (values of 10-20%) | * (weak antibacterial activity (greater than about 8 μg/mL)) | – | –
CC(=O)NCCC(=O)c1ccc(O)c2c1CC1CC3C(N(C)C)C(O)=C(C(N)=O)C(=O)C3(O)C(O)=C1C2=O (stereo not drawn) [CI] | *** (Good antibacterial activity (e.g., less than about 4 μg/mL)) | * (concentrations of greater than 40 μM) | ** (values of 10-20%) | * (weak antibacterial activity (greater than about 8 μg/mL)) | – | –
CN(C)C1C(O)=C(C(N)=O)C(=O)C2(O)C(O)=C3C(=O)c4c(O)ccc(-c5ccc(CNCc6cccnc6)o5)c4CC3CC12 (stereo not drawn) [BI] | *** (Good antibacterial activity (e.g., less than about 4 μg/mL)) | *** (concentrations of less than 10 μM) | ** (values of 10-20%) | *** (Good antibacterial activity (e.g., less than about 4 μg/mL)) | – | –
CCN(CC)CCNC(=O)c1cccc(-c2ccc(O)c3c2CC2CC4C(N(C)C)C(O)=C(C(N)=O)C(=O)C4(O)C(O)=C2C3=O)c1 (stereo not drawn) [O] | ** (modest antibacterial activity (between about 4 and 8 μg/mL)) | ** (concentrations between 40 and 10 μM) | * (percentage inclusion values of less than 10%) | * (weak antibacterial activity (greater than about 8 μg/mL)) | – | –
CN(C)CCNC(=O)c1cccc(-c2ccc(O)c3c2CC2CC4C(N(C)C)C(O)=C(C(N)=O)C(=O)C4(O)C(O)=C2C3=O)c1 (stereo not drawn) [Compound A] | *** (Good antibacterial activity (e.g., less than about 4 μg/mL)) | ** (concentrations between 40 and 10 μM) | ** (values of 10-20%) | * (weak antibacterial activity (greater than about 8 μg/mL)) | – | –
COCCNCC(=O)c1ccc(O)c2c1CC1CC3C(N(C)C)C(O)=C(C(N)=O)C(=O)C3(O)C(O)=C1C2=O (stereo not drawn) [AG] | ** (modest antibacterial activity (between about 4 and 8 μg/mL)) | ** (concentrations between 40 and 10 μM) | * (percentage inclusion values of less than 10%) | * (weak antibacterial activity (greater than about 8 μg/mL)) | – | –
COc1ccc(CNCc2ccc(-c3ccc(O)c4c3CC3CC5C(N(C)C)C(O)=C(C(N)=O)C(=O)C5(O)C(O)=C3C4=O)cc2)cc1 (stereo not drawn) [AW] | *** (Good antibacterial activity (e.g., less than about 4 μg/mL)) | *** (concentrations of less than 10 μM) | ** (values of 10-20%) | *** (Good antibacterial activity (e.g., less than about 4 μg/mL)) | – | –
